From US20220370416A1, “COMPOUNDS AND METHODS FOR TARGETED DEGRADATION OF KRAS” (Arvinas Operations, Inc., priority 2020, published 2022)

Key:
Format in all cases: cell-based
KRAS^G12C [1] = biological target: T1, KRAS^G12C (Homo sapiens, UniProt P01116, G12C); assay: Engagement and degradation of endogenous KRAS^G12C in NCI-H2030 cells (blot quantitation); design: MRTX849-VHL bifunctional compounds engage and degrade endogenous KRAS^G12C in NCI-H2030 cells; endogenous in cells; host or cells: NCI-H2030
KRAS^G12C [2] = biological target: T1, KRAS^G12C; assay: KRAS^G12C engagement and degradation by immunoblot in SW1573 cells; design: MRTX849-VHL bifunctional compounds engage and degrade endogenous KRAS^G12C in NCI-H2030 cells; endogenous in cells; host or cells: NCI-H2030, NCI-H358, MIA PaCa-2, SW1573, NCI-H23; details: for KRAS, two-way ANOVA significance vs DMSO: FIG. 11
Description: NCI-H2030 (CRL-5914), MIA PaCa-2 (CRL-1420), NCI-H23 (CRL-5800), NCI-H358 (CRL-5807), and HCT-116 (CCL-247) cells were obtained from ATCC, expanded immediately, and frozen down. Vials were thawed and used within 20 passages. SW1573 cells were a gift from Arvinas and were handled in the same manner. NCI-H2030, NCI-H23, and NCI-H358 were cultured in RPMI (ATCC30-2001) supplemented with 10% FBS (Biological Industries; cat. no. S1480) and 1% Penicillin-Streptomycin (ThermoFisher; cat. no. 15140122). HCT-116 cells were maintained in high glucose DMEM (ThermoFisher; cat. no. 11965084) supplemented as above. MIA PaCa-2 cells were cultured in high glucose DMEM supplemented with 10% FBS, 2.5% horse serum (ThermoFisher; cat. no. 26050-088; lot 2109875), and 1% Penicillin-Streptomycin. SW1573 cells were maintained in DMEM/F12 Nutrient Mix with GlutaMAX supplement (ThermoFisher; cat. no. 10565018) with 10% FBS and 1% Penicillin-Streptomycin added. DPBS (ThermoFisher; cat. no. 14190250) was used to wash cells and 0.25% Trypsin-EDTA (ThermoFisher; cat. no. […]) was used to detach cells for passaging. […] The VHL ligand was generously provided by Arvinas.
Between 2.5×10^5 and 6.0×10^5 cells were seeded into 6-well plates (Corning; cat. no. 353046). The next day, media was removed and cells were treated with 2.5 μM LC-2 for 1, 2, 4, 8, 12, or 24 hours. […] For 24-hour time course experiments, cells were treated at the indicated times and concurrently lysed in RIPA buffer supplemented as described previously. For longer time course experiments and time courses in which cells were treated with LC-2 or LC-2 Epimer, cells were concurrently treated with either compound, then lysed by scraping in RIPA buffer at the indicated time points.
Cell lysates were clarified at 21000×g for 15 mins at 4° C. Protein levels were quantified using a 50:1 mixture of bicinchoninic acid solution (Millipore Sigma; cat. no. B9643) and 4% (w/v) copper(II) sulfate solution (Millipore Sigma; cat. no. C2284) incubated at 37° C. for 30 mins. Absorbance values at 560 nm were read on an EnVision 2101 Multilabel Reader (PerkinElmer). Proteins were separated using 26 well Criterion TGX precast 4-15% (cat. no. 5671085) or 8-16% (cat. no. 5671105) gradient midi gels. After separation, proteins were transferred to nitrocellulose or PVDF membranes at 76 V for 2 hours at 4° C. Blots were then blocked in 5% milk in tris-buffered saline with Tween-20 (TBST; 20 mM Tris, 150 mM NaCl, 0.02% Tween-20). After blocking, blots were incubated in primary antibody overnight (12-18 hours) at 4° C. or for 2 hours at room temperature with mild agitation at the manufacturer's indicated dilution in either 5% milk or 5% BSA in TBST. Blots were then washed thrice with TBST for 5 mins at room temperature. After washing, blots were incubated with 1:5,000-1:10,000 of donkey anti-rabbit (GE Life Sciences; NA934) or sheep anti-mouse (GE Life Sciences; NA931) secondary antibody diluted in 5% milk for 1 hour at room temperature with mild agitation. Blots were again washed thrice with TBST for 5 mins. Chemiluminescent signal was generated using Amersham ECL Prime Western Blotting Detection Reagant (GE Life Sciences; cat. no. RPN2232) or SuperSignal West Femto Maximum Sensitivity Substrate (ThermoFisher; cat. no. 34095). Images were obtained using a Bio-Rad ChemiDoc Imager. Fluorescent α-tubulin images were collected with the Bio-Rad ChemiDoc Imager using an Alexa488 filter. The primary antibodies used in this work include: KRAS (LSBio; clone 2C1; cat. no. LS-C175665), p-p42/44 MAPK (phospho T202/Y204) (pErk; Cell Signaling Technologies (CST); cat. no. 4370S or 9106S), p42/44 MAPK (Erk1/2; CST; cat. no. 4695S), alpha-tubulin (CST; 2144S), and alpha-tubulin w/AlexaFluor488 (Millipore; cat. no. 16-232).
Band intensities were quantified using BioRad's Image Lab Software. […]

KRAS^G12C [3] = biological target: T1, KRAS^G12C; assay: KRAS^G12C degradation in heterozygous H358 cells; design: endogenous in cells; host or cells: NCI-H358; details: heterozygous H358 cells (FIG. 4A)
KRAS^G12C [4] = biological target: T1, KRAS^G12C; assay: KRAS^G12C engagement and degradation in homozygous, MRTX849 resistant SW1573 cells; design: MRTX849-VHL bifunctional compounds engage and degrade endogenous KRAS^G12C in NCI-H2030 cells; endogenous in cells; host or cells: NCI-H2030, NCI-H358, MIA PaCa-2, SW1573, NCI-H23
[5] = SW1573 cells, 72 hour time course (FIG. 8)
[6] = SW1573 cells, time course (FIG. 6B)

## C=C(F)C(=O)N1CCN(c2nc(OC[C@@H]3CCCN3CCCOCCC(=O)N[C@H](C(=O)N3C[C@@H](O)C[C@H]3C(=O)NCc3ccc(-c4scnc4C)cc3)C(C)(C)C)nc3c2CCN(c2cccc4cccc(Cl)c24)C3)C[C@@H]1CC#N [LC-2 Epimer, (2S,4S)-1-((S)-2-(3-(3-((S)-2-(((7-(8-chloronaphthalen-1-yl)-4-((S)-3-(cyanomethyl)-4-(2-fluoroacryloyl)piperazin-1-yl)-5,6,7,8-tetrahydropyrido[3,4-d]pyrimidin-2-yl)oxy)methyl)pyrrolidin-1-yl)propoxy)propanamido)-3,3-dimethylbutanoyl)-4-hydroxy-N-(4-(4-methylthiazol-5-yl)benzyl)pyrrolidine-2-carboxamide]
KRAS^G12C [1]; 2.5 μM (FIG. 5A)
  induction of KRAS^G12C degradation: does not induce KRAS^G12C degradation
KRAS^G12C [2]; SW1573, 2.5 μM
  time to near maximal engagement: 1 h
KRAS^G12C [2]; SW1573, longer time course (FIG. 8)
  KRAS^G12C engagement and protein levels: fully engaged KRAS^G12C in SW1573 cells, but did not decrease protein levels
KRAS^G12C [3]
  induction of KRAS^G12C degradation: not
KRAS^G12C [4]; [5]
  change of KRAS^G12C level over 72 hours: No change is observed

## C=C(F)C(=O)N1CCN(c2nc(OC[C@@H]3CCCN3CCCOCCC(=O)N[C@H](C(=O)N3C[C@H](O)C[C@H]3C(=O)NCc3ccc(-c4scnc4C)cc3)C(C)(C)C)nc3c2CCN(c2cccc4cccc(Cl)c24)C3)C[C@@H]1CC#N [LC-2, (2S,4R)-1-((S)-2-(3-(3-((S)-2-(((7-(8-chloronaphthalen-1-yl)-4-((S)-3-(cyanomethyl)-4-(2-fluoroacryloyl)piperazin-1-yl)-5,6,7,8-tetrahydropyrido[3,4-d]pyrimidin-2-yl)oxy)methyl)pyrrolidin-1-yl)propoxy)propanamido)-3,3-dimethylbutanoyl)-4-hydroxy-N-(4-(4-methylthiazol-5-yl)benzyl)pyrrolidine-2-carboxamide]
KRAS^G12C [1]; VHL ligand competition, epoxomicin, MLN924 (FIG. 5A)
  rescue of induced KRAS^G12C degradation (mechanism): rescued by VHL ligand competition, proteasome inhibition with epoxomicin (Epox), and neddylation inhibition with MLN924 (MLN)
KRAS^G12C [1]; dose response (FIG. 2C)
  degradation of KRAS^G12C: degrades KRAS^G12C in a dose dependent manner
KRAS^G12C [1]; time course (FIG. 6A)
  maximal KRAS^G12C degradation maintained up to: 24 h
  time to maximal KRAS^G12C degradation: ≤ 8 h
KRAS^G12C [2]; SW1573, 2.5 μM
  duration of KRAS degradation: sustained up to 72 hours
KRAS^G12C [2]; SW1573, 2.5 μM, 6, 24, 48, 72 hours
  time to maximal KRAS degradation: ≤ 24 h
KRAS^G12C [2]; SW1573, 2.5 μM, 1 hour
  KRAS, two-way ANOVA significance vs DMSO: N.S.
KRAS^G12C [2]; SW1573, 2.5 μM, 2 hours
  KRAS, two-way ANOVA significance vs DMSO: N.S.
KRAS^G12C [2]; SW1573, 2.5 μM, 4 hours
  KRAS, two-way ANOVA significance vs DMSO: N.S.
KRAS^G12C [2]; SW1573, 2.5 μM, 8 hours
  KRAS, two-way ANOVA significance vs DMSO: ** (** p < 0.01)
KRAS^G12C [2]; SW1573, 2.5 μM, 12 hours
  KRAS, two-way ANOVA significance vs DMSO: ** (** p < 0.01)
KRAS^G12C [2]; SW1573, 2.5 μM, 24 hour time course
  time to maximal degradation: 12 h
KRAS^G12C [2]; SW1573, 2.5 μM, 24 hours
  KRAS, two-way ANOVA significance vs DMSO: *** (*** p < 0.005)
KRAS^G12C [2]; SW1573, homozygous KRAS^G12C
  DC50: 760 ± 300 nM
  Dmax: > 85%
KRAS^G12C [3]
  induction of KRAS^G12C degradation: induces KRAS^G12C degradation
KRAS^G12C [4]; [5]
  KRAS^G12C degradation maintained for: 72 h
  time to onset of KRAS^G12C degradation: ≤ 6 h
KRAS^G12C [4]; [6]
  maximal KRAS^G12C degradation maintained up to: 24 h
  time to maximal KRAS^G12C degradation: 12 h
KRAS^G12C [4]; homozygous, MRTX849 resistant SW1573 cells (FIG. 4C)
  induction of KRAS^G12C degradation: induces KRAS^G12C degradation
